In patent publication US20050070510A1, “Substituted tetracycline compounds as synergistic antifungal agents” (Paratek Pharmaceuticals, Inc., priority 2001, published 2005):

System: COS-1 cells
Assay: In vitro mammalian cytotoxicity assay (Resazurin)

Row | Structure (SMILES) | In Vitro Cytotoxicity
1 | CN(C)[C@@H]1C(O)=C(C(N)=O)C(=O)[C@@]2(C#N)C(O)=C3C(=O)c4c(O)ccc(C#Cc5ccc([N+](=O)O)cc5)c4C[C@@]3(N)C[C@@]12N [FU] | ** (toxicities less than 25 μg/mL are represented by **)
2 | CN(C)c1cc(CNc2ccccc2)c(O)c2c1C[C@@]1(N)C[C@@]3(N)[C@H](N(C)C)C(O)=C(C(N)=O)C(=O)[C@@]3(C#N)C(O)=C1C2=O [VD] | ** (toxicities less than 25 μg/mL are represented by **)
3 | CN(C)[C@@H]1C(O)=C(C(N)=O)C(=O)[C@@]2(C#N)C(O)=C3C(=O)c4c(O)ccc(-c5ccncc5)c4C[C@@]3(N)C[C@@]12N [UN] | ** (toxicities less than 25 μg/mL are represented by **)
4 | CCCc1cccc(-c2ccc(O)c3c2C[C@@]2(N)C[C@@]4(N)[C@H](N(C)C)C(O)=C(C(N)=O)C(=O)[C@@]4(C#N)C(O)=C2C3=O)c1 [FY] | ** (toxicities less than 25 μg/mL are represented by **)
5 | CN(C)c1cc(CCCNS(C)(=O)=O)c(O)c2c1C[C@@]1(N)C[C@@]3(N)[C@H](N(C)C)C(O)=C(C(N)=O)C(=O)[C@@]3(C#N)C(O)=C1C2=O [JX] | * (toxicities greater than >25 μg/ml are represented by *)
6 | CCCCCc1ccc(O)c2c1C[C@@]1(N)C[C@@]3(N)[C@H](N(C)C)C(O)=C(C(N)=O)C(=O)[C@@]3(C#N)C(O)=C1C2=O [JU] | ** (toxicities less than 25 μg/mL are represented by **)
7 | CN(C)[C@@H]1C(O)=C(C(N)=O)C(=O)[C@@]2(C#N)C(O)=C3C(=O)c4c(O)c(CNC(=O)CCl)cc(-c5ccccc5)c4C[C@@]3(N)C[C@@]12N [KD] | ** (toxicities less than 25 μg/mL are represented by **)
8 | CN(C)c1cc(CNC(=O)Nc2ccc(OC(F)(F)F)cc2)c(O)c2c1C[C@@]1(N)C[C@@]3(N)[C@H](N(C)C)C(O)=C(C(N)=O)C(=O)[C@@]3(C#N)C(O)=C1C2=O [NE] | * (toxicities greater than >25 μg/ml are represented by *)
9 | CCCc1cc(CN)c(O)c2c1C[C@@]1(N)C[C@@]3(N)[C@H](N(C)C)C(O)=C(C(N)=O)C(=O)[C@@]3(C#N)C(O)=C1C2=O [JS] | * (toxicities greater than >25 μg/ml are represented by *)
10 | CN(C)[C@@H]1C(O)=C(C(N)=O)C(=O)[C@@]2(C#N)C(O)=C3C(=O)c4c(O)c(-c5cccc6c5OCO6)cc(-c5ccc6c(c5)OCO6)c4[C@H](N)[C@@]3(N)[C@H](O)[C@@]12N [PU] | ** (toxicities less than 25 μg/mL are represented by **)
11 | CN(C)c1cc(CCC2(O)CCCC2)c(O)c2c1C[C@@]1(N)C[C@@]3(N)[C@H](N(C)C)C(O)=C(C(N)=O)C(=O)[C@@]3(C#N)C(O)=C1C2=O [PW] | ** (toxicities less than 25 μg/mL are represented by **)
12 | CN(C)[C@@H]1C(O)=C(C(N)=O)C(=O)[C@@]2(C#N)C(O)=C3C(=O)c4c(O)ccc(-c5ccc(C(=O)O)c6ccccc56)c4C[C@@]3(N)C[C@@]12N [NM] | ** (toxicities less than 25 μg/mL are represented by **)
13 | CN(C)[C@@H]1C(O)=C(C(N)=O)C(=O)[C@@]2(C#N)C(O)=C3C(=O)c4c(ccc(N5CCCCC5)c4O)[C@H](N)[C@@]3(N)[C@H](O)[C@@]12N [SA] | * (toxicities greater than >25 μg/ml are represented by *)
14 | CC(=O)c1ccc(NC(=O)NCc2cc(N(C)C)c3c(c2O)C(=O)C2=C(O)[C@]4(C#N)C(=O)C(C(N)=O)=C(O)[C@@H](N(C)C)[C@]4(N)C[C@]2(N)C3)cc1 [NA] | * (toxicities greater than >25 μg/ml are represented by *)
15 | CN(C)[C@@H]1C(O)=C(C(N)=O)C(=O)[C@@]2(C#N)C(O)=C3C(=O)c4c(O)ccc(-c5cccc(N)c5)c4C[C@@]3(N)C[C@@]12N [FC] | ** (toxicities less than 25 μg/mL are represented by **)
16 | Cc1cc(CNCc2cc(N(C)C)c3c(c2O)C(=O)C2=C(O)[C@]4(C#N)C(=O)C(C(N)=O)=C(O)[C@@H](N(C)C)[C@]4(N)C[C@]2(N)C3)[nH]c1C [SP] | * (toxicities greater than >25 μg/ml are represented by *)
17 | CN(C)[C@@H]1C(O)=C(C(N)=O)C(=O)[C@@]2(C#N)C(O)=C3C(=O)c4c(O)ccc(C5C=CCC5)c4C[C@@]3(N)C[C@@]12N (stereo partly drawn) [FD] | ** (toxicities less than 25 μg/mL are represented by **)
18 | CCc1cc(CNCC(C)C)c(O)c2c1C[C@@]1(N)C[C@@]3(N)[C@H](N(C)C)C(O)=C(C(N)=O)C(=O)[C@@]3(C#N)C(O)=C1C2=O [RK] | * (toxicities greater than >25 μg/ml are represented by *)
19 | CN(C)CC(=O)Nc1ccc(C#Cc2ccc(O)c3c2C[C@@]2(N)C[C@@]4(N)[C@H](N(C)C)C(O)=C(C(N)=O)C(=O)[C@@]4(C#N)C(O)=C2C3=O)cc1 [GY] | * (toxicities greater than >25 μg/ml are represented by *)
20 | CCNC(=O)Nc1cc(N(C)C)c2c(c1O)C(=O)C1=C(O)[C@]3(C#N)C(=O)C(C(N)=O)=C(O)[C@@H](N(C)C)[C@]3(N)C[C@]1(N)C2 [KJ] | ** (toxicities less than 25 μg/mL are represented by **)
21 | COC(=O)c1ccc(-c2ccc(O)c3c2C[C@@]2(N)C[C@@]4(N)[C@H](N(C)C)C(O)=C(C(N)=O)C(=O)[C@@]4(C#N)C(O)=C2C3=O)cc1 [EF] | ** (toxicities less than 25 μg/mL are represented by **)

Row | Structure (SMILES) | In Vitro Cytotoxicity
22 | CN(C)[C@@H]1C(O)=C(C(N)=O)C(=O)[C@@]2(C#N)C(O)=C3C(=O)c4c(O)ccc(-c5cccc(CN6CCCC6)c5)c4C[C@@]3(N)C[C@@]12N [HL] | * (toxicities greater than >25 μg/ml are represented by *)
23 | CCC(=O)O[C@H]1[C@@]2(N)C(=C(O)[C@]3(C#N)C(=O)C(C(N)=O)=C(O)[C@@H](N(C)C)[C@]13N)C(=O)c1c(O)ccc(I)c1[C@@H]2N [CM] | ** (toxicities less than 25 μg/mL are represented by **)
24 | CN(C)[C@@H]1C(O)=C(C(N)=O)C(=O)[C@@]2(C#N)C(O)=C3C(=O)c4c(O)c(CN)cc(-c5ccc(I)cc5)c4C[C@@]3(N)C[C@@]12N [JT] | * (toxicities greater than >25 μg/ml are represented by *)
25 | Cc1cccc(-c2ccc(O)c3c2C[C@@]2(N)C[C@@]4(N)[C@H](N(C)C)C(O)=C(C(N)=O)C(=O)[C@@]4(C#N)C(O)=C2C3=O)n1 [VJ] | ** (toxicities less than 25 μg/mL are represented by **)
26 | CN(C)[C@@H]1C(O)=C(C(N)=O)C(=O)[C@@]2(C#N)C(O)=C3C(=O)c4c(O)cccc4/C(=C\c4ccc(F)cc4)[C@@]3(N)[C@H](O)[C@@]12N [DS] | ** (toxicities less than 25 μg/mL are represented by **)
27 | CNc1ccc(NC(=O)Nc2cc(N(C)C)c3c(c2O)C(=O)C2=C(O)[C@]4(C#N)C(=O)C(C(N)=O)=C(O)[C@@H](N(C)C)[C@]4(N)C[C@]2(N)C3)cc1 [SE] | * (toxicities greater than >25 μg/ml are represented by *)
28 | CN(C)[C@@H]1C(O)=C(C(N)=O)C(=O)[C@@]2(C#N)C(O)=C3C(=O)c4c(ccc(-c5ccc6c(c5)OCO6)c4O)[C@H](N)[C@@]3(N)[C@H](O)[C@@]12N [PV] | ** (toxicities less than 25 μg/mL are represented by **)
29 | CC#Cc1ccc(O)c2c1CC1CC3[C@H](N(C)C)C(O)=C(C(N)=O)C(=O)[C@@]3(O)C(O)=C1C2=O (stereo partly drawn) [Compound HC, 7-(Propynyl)-Sancycline] | ** (toxicities less than 25 μg/mL are represented by **)
30 | CN(C)[C@@H]1C(O)=C(C(N)=O)C(=O)[C@@]2(C#N)C(O)=C3C(=O)c4c(O)c(-c5ccc6c(c5)OCO6)cc(-c5ccc6c(c5)OCO6)c4C[C@@]3(N)C[C@@]12N [LP] | ** (toxicities less than 25 μg/mL are represented by **)
31 | COC(=O)CCC(=O)Nc1ccc(-c2ccc(O)c3c2C[C@@]2(N)C[C@@]4(N)[C@H](N(C)C)C(O)=C(C(N)=O)C(=O)[C@@]4(C#N)C(O)=C2C3=O)cc1 [UT] | ** (toxicities less than 25 μg/mL are represented by **)
32 | CN(C)[C@@H]1C(O)=C(C(N)=O)C(=O)[C@@]2(C#N)C(O)=C3C(=O)c4c(ccc(Nc5nc(-c6ccc(F)cc6)cs5)c4O)C[C@@]3(N)C[C@@]12N [EB] | * (toxicities greater than >25 μg/ml are represented by *)
33 | CN(C)[C@@H]1C(O)=C(C(N)=O)C(=O)[C@@]2(C#N)C(O)=C3C(=O)c4c(O)cccc4[C@H](N)[C@@]3(N)[C@H]([S+](N)[O-])[C@@]12N (stereo partly drawn) [BS] | ** (toxicities less than 25 μg/mL are represented by **)
34 | CN(C)[C@@H]1C(O)=C(C(N)=O)C(=O)[C@@]2(C#N)C(O)=C3C(=O)c4c(O)ccc(-c5ccccc5)c4C[C@@]3(N)C[C@@]12N [LK] | ** (toxicities less than 25 μg/mL are represented by **)
35 | CN(C)[C@@H]1C(O)=C(C(N)=O)C(=O)[C@@]2(C#N)C(O)=C3C(=O)c4c(ccc(NC(=O)OCC(C)(C)C)c4O)[C@H](N)[C@@]3(N)[C@H](O)[C@@]12N [BI] | ** (toxicities less than 25 μg/mL are represented by **)
36 | COc1ccc(CNC(C)C)cc1-c1ccc(O)c2c1C[C@@]1(N)C[C@@]3(N)[C@H](N(C)C)C(O)=C(C(N)=O)C(=O)[C@@]3(C#N)C(O)=C1C2=O [LS] | * (toxicities greater than >25 μg/ml are represented by *)
37 | CN(C)[C@@H]1C(O)=C(C(N)=O)C(=O)[C@@]2(C#N)C(O)=C3C(=O)c4c(O)ccc(-c5ccoc5)c4C[C@@]3(N)C[C@@]12N [EP] | ** (toxicities less than 25 μg/mL are represented by **)
38 | CN(C)[C@@H]1C(O)=C(C(=O)CC(C)(C)C)C(=O)[C@@]2(C#N)C(O)=C3C(=O)c4c(O)c(C(C)(C)C)cc(-c5cccc([N+](=O)O)c5)c4C[C@@]3(N)C[C@@]12N [KT] | ** (toxicities less than 25 μg/mL are represented by **)
39 | CN(C)[C@@H]1C(O)=C(C(N)=O)C(=O)[C@@]2(C#N)C(O)=C3C(=O)c4c(O)cccc4C(N)[C@@]3(N)[C@H](O)[C@@]12N (stereo partly drawn) [CZ] | ** (toxicities less than 25 μg/mL are represented by **)
40 | CN(C)[C@@H]1C(O)=C(C(N)=O)C(=O)[C@@]2(C#N)C(O)=C3C(=O)c4c(O)ccc(C(=O)O)c4C[C@@]3(N)C[C@@]12N [JR] | * (toxicities greater than >25 μg/ml are represented by *)
41 | CN(C)c1cc(-c2ccc(CN3CCCC3)cc2)c(O)c2c1C[C@@]1(N)C[C@@]3(N)[C@H](N(C)C)C(O)=C(C(N)=O)C(=O)[C@@]3(C#N)C(O)=C1C2=O [JZ] | ** (toxicities less than 25 μg/mL are represented by **)
42 | CCOC(=O)CNC(=O)c1cccc(-c2cc(N(C)C)c3c(c2O)C(=O)C2=C(O)[C@]4(C#N)C(=O)C(C(N)=O)=C(O)[C@@H](N(C)C)[C@]4(N)C[C@]2(N)C3)c1 [LM] | ** (toxicities less than 25 μg/mL are represented by **)
